Experiments:
[1] = women of child-bearing age who just get off treatment; cited from earlier work
[2] = Amount of Tazarotene solubilized in caprylic/capric triglyceride per capsule; assay type: physicochemical; settings: caprylic/capric triglyceride vehicle
Source text: Importantly, the retinoid agent, Tazarotene, is fully dissolved in the vehicle in a conventional manner before incorporation into the capsule shell. The total dissolution of Tazarotene in the vehicle facilitates absorption from the gastro-intestinal tract by eliminating the need for drug dissolution prior to absorption.

[3] = Solubility of Tazarotene in water; assay type: physicochemical
Source text: The invention is directed to capsule systems for the delivery of active agents, particularly retinoids. In a preferred example, it is known that the compound Tazarotene, known chemically as ethyl 6-[(4,4-dimethylthiochroman-6-yl)ethynyl]-nicotinate, having the molecular formula C21H21NO2S, is active in the treatment of acne and psoriasis. […] However, the solubility of Tazarotene in water is negligible.

| amount effectively solubilized in a capsule [2] | solubility in water [3] | Compound | typical precautionary pregnancy wash-out period [1] |
| --- | --- | --- | --- |
|  |  | COc1cc(C)c(/C=C/C(C)=C/C=C/C(C)=C/C(=O)O)c(C)c1C [acitretin] | three years |
| up to 34 mg | negligible | CCOC(=O)c1ccc(C#Cc2ccc3c(c2)C(C)(C)CCS3)nc1 [Tazarotene, ethyl 6-[(4,4-dimethylthiochroman-6-yl)ethynyl]-nicotinate] |  |
|  |  | CC1=C(/C=C/C(C)=C/C=C/C(C)=C\C(=O)O)C(C)(C)CCC1 [isotretinoin] | one month |
